The source of these data is patent US4634704A, “Anti-allergic five membered heterocyclic ring containing N-(bicyclic heterocycyl)-4-piperidinamines” (Janssen Pharmaceutica, N.V., priority 1984, dated 1987).

The test system of test [1] is effects of serotonin in the gastric lesion test. The settings on record: rats injected with compound 48/80; known serotonin-antagonists; cited from earlier work.
Test [2] has the same test system. As to the kind of experiment: Antagonistic activity on the effects of serotonin in the gastric lesion test (lesions induced by compound 48/80). The test is classed as in vivo, rat (male, Wistar inbred strain). The source says:
The compounds of formula (I) and the pharmaceutically acceptable acid addition salts thereof are also potent serotonin-antagonists. The potency of the subject compounds as serotonin-antagonists is clearly evidenced by the results obtained in the following tests wherein the antagonistic activity of the subject compounds on the effect of serotonin is examined.
Antagonistic activity on the effects of serotonin in the gastric lesion test.
The shock, followed by dead, can be avoided if the rats are pretreated with a classical H 1 antagonist.
Male rats of a Wistar inbred strain, weighing 220-250 g, were starved overnight, water being available ad libitum. The test compounds were administered orally as a solution or as a suspension in aqueous medium. A control rat and a "blank" rat received the test compound. One hour later 5-[4-(diphenylmethyl)-1-piperazinylmethyl]-1-methyl-1H-benzimidazole-2-methanol was administered subcutaneously to all rats at the dose of 2.5 mg/kg.
Four hours after the intravenous injection of compound 48/80, the rats were decapitated and the stomachs were removed. Subsequently the stomachs were inspected for distension and contents (blood, fluid, food) and thoroughly rinsed. The macroscopic lesions were scored from 0 to +++, 0 corresponding to the complete absence of visible lesions and the highest score corresponding to reddish rough patches covering more than half the glandular area.

Test [3] deals with compound 48/80-induced lethality. As to the kind of experiment: Protection of rats from compound 48/80-induced lethality. It is filed as in vivo, rat (male, inbred Wistar strain). To be noted: subcutaneous or oral, 1 h before compound 48/80 0.5 mg/kg i.v., survival after 4 h; for ED50: Rattus norvegicus, 4 h, read-out: compound 48/80 lethality test in rats-ED50, dose protecting 50% of animals. On the procedure:
Protection of rats from compound 48/80-induced lethality.
The protection from compound 48/80-induced lethal circulatory collapse appears to be a simple way of evaluating quantitatively the antihistaminic activity of test compounds. Male rats of an inbred Wistar strain, weighing 240-260 g were used in the experiment. After overnight starvation the rats were transferred to conditioned laboratories (temp.=21±1° C., relative humidity=65±5%).
The rats were treated subcutaneously or orally with a test compound or with the solvent (NaCl solution, 0.9%). […] Survival after 4 hours is therefore considered to be a safe criterion of a protective effect of drug administration.
The ED50 -values of the compounds of formula (I) are listed in the first column of table 1. Said ED50 -values are the values in mg/kg body weight at which the tested compounds protect 50% of the tested animals against compound 48/80-induced lethality.

Setting [4] is: Rattus norvegicus, read-out: gastric lesion test ED50.
Setting [5] is: Rattus norvegicus; read-out: gastric lesion test ED50.

Counter-ions that a name gives are not always drawn. Like-named read-outs stand apart in the source and are kept apart here.

For `CN1CCN2c3ccccc3Cc3ccccc3C2C1` (stereo not shown) [mianserin], the “prevention of cyanosis of ears and extremities, lesions in the glandular area of the stomach and abnormal gastric distension” value (from here on “prevention”) in test [1] was “prevent completely”.
Turning to `NC(=O)C1(N2CCCCC2)CCN(CCCC(=O)c2ccc(F)cc2)CC1` [pipamperone], in test [1], the “prevention” value is on record as “prevent completely”.
Consider `Cc1sc(N)nc1CCN1CCC(Nc2nc3ccccc3n2Cc2ccc(F)cc2)CC1` [Compound 94, N-[1-[2-(2-amino-5-methyl-4-thiazolyl)ethyl]-4-piperidinyl]-1-[(4-fluorophenyl)methyl]-1H-benzimidazol-2-amine], for which the ED50 in test [2] (setting [4]) and in test [3] was 0.08 mg/kg throughout.
For `Cc1coc(NCCN2CCC(Nc3nc4ccccc4n3Cc3ccc(F)cc3)CC2)n1` [Compound 84, 1-[(4-fluorophenyl)methyl]-N-[1-[2-[(4-methyl-2-oxazolyl)amino]ethyl]-4-piperidinyl]-1H-benzimidazol-2-amine], the results for the ED50 in test [2] (setting [5]) and in test [3] were 0.63 mg/kg and 0.16 mg/kg, respectively.
Turning to `Fc1ccc(Cn2c(NC3CCN(CCNc4ncc[nH]4)CC3)nc3ccccc32)cc1` [Compound 79, 1-[(4-fluorophenyl)methyl]-N-[1-[2-(1H-imidazol-2-ylamino)ethyl]-4-piperidinyl]-1H-benzimidazol-2-amine], the ED50 in test [2] (setting [4]) came to 0.04 mg/kg; in test [3], 0.02 mg/kg.
For `Fc1ccc(Cn2c(NC3CCN(C4CCN(c5nccs5)CC4)CC3)nc3ccccc32)cc1` [Compound 52], the ED50 in test [2] (setting [5]) worked out at 0.63 mg/kg; in test [3] it was 1.25 mg/kg.
As to `Cn1ccnc1SCCN1CCC(Nc2nc3ccccc3n2Cc2ccc(F)cc2)CC1` [Compound 75, 1-[(4-fluorophenyl)methyl]-N-[1-[2-[(1-methyl-1H-imidazol-2-yl)thio]ethyl]-4-piperidinyl]-1H-benzimidazol-2-amine], the ED50 in test [2] (setting [4]) and in test [3] was 0.08 mg/kg each time.
Regarding `CC[C@@H](CO)NC(=O)[C@@H]1C=C2c3cccc4c3c(cn4C)C[C@H]2N(C)C1` [methysergide], the “prevention” value in test [1] was “prevent completely”.
With `Cc1ccccc1Cn1c(NC2CCN(CCNc3nccs3)CC2)nc2ccccc21` [Compound 29], the ED50 in test [2] (setting [5]) and in test [3] was 0.63 mg/kg throughout.
On to `CN1C[C@H](CNC(=O)OCc2ccccc2)C[C@@H]2c3cccc4c3c(cn4C)C[C@H]21` [metergoline], for which the “prevention” value in test [1] is “prevent completely”.
On to `c1ccc2c(c1)nc(NC1CCN(CCNc3nccs3)CC1)n2Cc1cscn1` [Compound 49, N-[1-[2-(2-thiazolylamino)ethyl]-4-piperidinyl]-1-(4-thiazolylmethyl)-1H-benzimidazol-2-amine ethanedioate (2:5)], for which the ED50 in test [2] (setting [5]) came out at 0.63 mg/kg; in test [3], 0.04 mg/kg.
Take `O=C(CCCN1CCC2(CC1)C(=O)NCN2c1ccccc1)c1ccc(F)cc1` [spiperone]: the “prevention” value in test [1] is reported as “prevent completely”.
With `Fc1ccc(Cn2c(NC3CCN(CCNc4nccs4)CC3)nc3cccnc32)cc1` [Compound 17], the ED50 in test [2] (setting [5]) worked out at 0.16 mg/kg; in test [3] it was 0.02 mg/kg.
`Fc1ccc(Cn2c(NC3CCN(CCNc4nc(-c5ccccn5)cs4)CC3)nc3ccccc32)cc1` [Compound 87]: the ED50 in test [2] (setting [5]) is 0.63 mg/kg; in test [3] it was 0.31 mg/kg.
As for `Clc1ccc(Cn2c(NC3CCN(CCNc4nccs4)CC3)nc3ccccc32)cc1` [Compound 25], the ED50 in test [2] (setting [5]) is 0.63 mg/kg; in test [3] it was 0.31 mg/kg.
On the same counts, the results for `Fc1ccc(Cn2c(NC3CCN(CCNc4nc(-c5ccncc5)cs4)CC3)nc3ccccc32)cc1` [Compound 86] are 1.25 mg/kg and 0.31 mg/kg.
On to `O=C(c1ccccc1)N(CCN1CCC(Nc2nc3ccccc3n2Cc2ccc(F)cc2)CC1)c1nccs1` [Compound 100, N-[2-[4-[[1-[(4-fluorophenyl)methyl]-1H-benzimidazol-2-yl]amino]-1-piperidinyl]ethyl]-N-(2-thiazolyl)benzamide], for which the ED50 in test [2] (setting [5]) was determined as 0.63 mg/kg; in test [3], 0.31 mg/kg.
Take `Fc1ccc(Cn2c(NC3CCN(CCNc4nccs4)CC3)nc3ccccc32)cc1` [Compound 58]: the ED50 in test [2] (setting [4]) came to 0.04 mg/kg. Moreover, in test [3] (dose protecting 50% of animals, 0.5 mg/kg, 240 min), the “compound 48/80 lethality test in rats-ED50” value turned out to be 0.02 mg/kg body weight.
For `Nc1nnc(NCCN2CCC(Nc3nc4ccccc4n3Cc3ccc(F)cc3)CC2)s1` [Compound 18], the results for the ED50 in test [2] (setting [4]) and in test [3] were 0.04 mg/kg and 0.02 mg/kg, respectively.
`Cc1nnc(NCCN2CCC(Nc3nc4ccccc4n3Cc3ccc(F)cc3)CC2)s1` [Compound 15, 1-[(4-fluorophenyl)methyl]-N-[1-[2-[(5-methyl-1,3,4-thiadiazol-2-yl)amino]ethyl]-4-piperidinyl]-1H-benzimidazol-2-amine]: the ED50 in test [2] (setting [5]) stood at 0.31 mg/kg; in test [3] it was 0.04 mg/kg.
As for `Cc1csc(NCCN2CCC(Nc3nc4ccccc4n3Cc3ccc(F)cc3)CC2)n1` [Compound 85, 1-[(4-fluorophenyl)methyl]-N-[1-[2-[(4-methyl-2-thiazolyl)amino]ethyl]-4-piperidinyl]-1H-benzimidazol-2-amine], the ED50 turned out to be 0.04 mg/kg in test [2] (setting [4]) and 0.08 mg/kg in test [3].
For the molecule `N=C(N)Nc1nc(CCN2CCC(Nc3nc4ccccc4n3Cc3ccc(F)cc3)CC2)cs1` [Compound 90, N-[4-[2-[4-[[1-[(4-fluorophenyl)methyl]-1H-benzimidazol-2-yl]amino]-1-piperidinyl]ethyl-2-thiazolyl]guanidinetrihydrobromide], the ED50 in test [2] (setting [5]) was 0.31 mg/kg; in test [3] it was 0.04 mg/kg.
For `Fc1ccccc1Cn1c(NC2CCN(CCNc3nccs3)CC2)nc2ccccc21` [Compound 31], in that order: 0.63 mg/kg and 0.08 mg/kg.
For `Fc1ccc(Cn2c(NC3CCN(CCOc4nccs4)CC3)nc3ccccc32)cc1` [Compound 72, 1-[(4-fluorophenyl)methyl]-N-[1-[2-(2-thiazolyloxy)ethyl]-4-piperidinyl]-1H-benzimidazol-2-amine], in that order: 0.63 mg/kg and 0.08 mg/kg.
Regarding `CC(=O)N(CCN1CCC(Nc2nc3ccccc3n2Cc2ccc(F)cc2)CC1)c1nccs1` [Compound 102, N-[2-[4-[[1-[(4-fluorophenyl)methyl]-1H-benzimidazol-2-yl]-amino]-1-piperidinyl]ethyl]-N-(2-thiazolyl)acetamide], the ED50 is 1.25 mg/kg in test [2] (setting [5]) and 0.16 mg/kg in test [3].
As to `Fc1ccc(Cn2c(NC3CCN(CCCCCNc4nccs4)CC3)nc3ccccc32)cc1` [Compound 21], the ED50 in test [2] (setting [5]) was determined as 0.31 mg/kg; in test [3] it was 0.16 mg/kg.
As to `CN1CCC(=C2c3ccccc3CCc3sccc32)CC1` [pizotifen], the “prevention” value in test [1] was “prevent completely”.
Consider `CN(C)CCCSc1ccccc1NC(=O)/C=C/c1ccccc1` [cinanserin], for which the “prevention” value in test [1] is “prevent completely”.
In the case of `CN1CCC(=C2c3ccccc3C=Cc3ccccc32)CC1` [cyproheptadine], in test [1], the “prevention” value is on record as “prevent completely”.
For the molecule `CC(C)n1ccnc1NCCN1CCC(Nc2nc3ccccc3n2Cc2ccc(F)cc2)CC1.O` [Compound 81, 1-[(4-fluorophenyl)methyl]-N-[1-[2-[[1-(1-methylethyl)-1H-imidazol-2-yl]amino]-ethyl]-4-piperidinyl]-1H-benzimidazol-2-amine mono hydrate], the ED50 in test [2] (setting [5]) amounted to 0.31 mg/kg; in test [3] it was 0.04 mg/kg.
For `Cc1nc[nH]c1CN1CCC(Nc2nc3ccccc3n2Cc2ccc(F)cc2)CC1` [Compound 7, 1-(4-fluorophenylmethyl)-N-[1-[(4-methyl-1H-imidazol-5-yl)methyl]-4-piperidinyl]-1H-benzimidazol-2-amine], in that order: 0.31 mg/kg and 0.02 mg/kg.
On the same counts, the results for `c1csc(Cn2c(NC3CCN(CCNc4nccs4)CC3)nc3ccccc32)c1` [Compound 28] are 0.02 mg/kg and 0.08 mg/kg.
Take `c1coc(Cn2c(NC3CCN(CCNc4nccs4)CC3)nc3ccccc32)c1` [Compound 48, 1-(2-furanylmethyl)-N-[1-[2-(2-thiazolylamino)ethyl]-4-piperidinyl]-1H-benzimidazol-2-amine]: the ED50 in test [2] (setting [5]) is 0.63 mg/kg; in test [3] it was 0.08 mg/kg.
